{
  "source": "ChEMBL document CHEMBL6074635",
  "about": "“Replacement of the essential nitro group by electrophilic warheads towards nitro-free antimycobacterial benzothiazinones” (Eur J Med Chem, 2024)",
  "key": {"[1]": {"test_system": "Mycolicibacterium vaccae", "assay": "Antimycobacterial activity against Mycobacterium vaccae JMRC:STI:10670 assessed as inhibition of bacterial growth incubated for 42 hrs by broth microdilution method", "assay_type": "functional"}, "[2]": {"test_system": "Mycolicibacterium smegmatis", "assay": "Antimycobacterial activity against Mycobacterium smegmatis JMRC:STH:00056 assessed as inhibition of bacterial growth incubated for 42 hrs by broth microdilution method", "assay_type": "functional"}, "[3]": {"test_system": "Mycobacterium tuberculosis", "assay": "Antimycobacterial activity against Mycobacterium tuberculosis H37Rv assessed as inhibition of bacterial growth incubated for 7 days by resazurin dye based two-fold dilution assay", "assay_type": "functional", "settings": "168 h, time 7 day"}, "[4]": {"test_system": "Mycobacterium tuberculosis", "assay": "Antimycobacterial activity against Mycobacterium tuberculosis Erdman ATCC 35801 assessed as inhibition of bacterial growth incubated for 7 days by resazurin dye based two-fold dilution assay", "assay_type": "functional", "settings": "Erdman ATCC 35801, 168 h, time 7 day"}, "[5]": {"assay": "Cytotoxicity against human HeLa cells incubated for 72 hrs by cell-titer blue reagent assay", "assay_type": "toxicity, cell-based"}, "[6]": {"assay": "Stability of compound in PBS at pH 7.4 assessed as half-life in presence of GSH incubated for 90 mins by UPLC-HRMS analysis", "assay_type": "physicochemical", "settings": "PBS with GSH"}, "[7]": {"assay": "Drug metabolism in BALB/cAnNCrl mouse assessed as HMC metabolite formation at 250 mg/kg,po measured after 24 hrs by UHPLC-HRMS analysis", "assay_type": "ADME, organism-based", "settings": "in vivo"}, "[8]": {"target": "T1, Decaprenylphosphoryl-beta-D-ribose oxidase (Mycobacterium tuberculosis (strain ATCC 25618 / H37Rv), UniProt P9WJF1)", "T1 sequence (P9WJF1 whole entry)": "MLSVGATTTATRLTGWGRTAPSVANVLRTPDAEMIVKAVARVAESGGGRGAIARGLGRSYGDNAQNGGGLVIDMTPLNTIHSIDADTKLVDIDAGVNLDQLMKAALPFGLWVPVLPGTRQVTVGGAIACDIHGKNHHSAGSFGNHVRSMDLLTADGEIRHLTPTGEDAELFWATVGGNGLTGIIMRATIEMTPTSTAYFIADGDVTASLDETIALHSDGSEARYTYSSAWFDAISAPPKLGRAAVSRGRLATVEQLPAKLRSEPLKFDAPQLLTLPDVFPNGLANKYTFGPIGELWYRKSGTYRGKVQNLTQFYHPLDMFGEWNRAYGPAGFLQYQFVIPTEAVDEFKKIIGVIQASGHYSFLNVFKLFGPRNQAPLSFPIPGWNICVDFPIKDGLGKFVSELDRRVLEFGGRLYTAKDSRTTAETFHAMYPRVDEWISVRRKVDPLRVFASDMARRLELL", "assay": "Reversible inhibition of recombinant Mycobacterium tuberculosis DprE1 extracted from Escherichia coli BL21(DE3) using FPR/GGPR as substrate incubated for 60 mins by resazurin dye based fluorescence plate reader analysis"}, "[9]": {"assay": "Stability of compound in PBS at pH 7.4 in presence of GSH incubated for 90 mins by UPLC-HRMS analysis", "assay_type": "physicochemical", "settings": "buffer, pH 7.4, 1.5 h"}, "[10]": {"target": "T1, Decaprenylphosphoryl-beta-D-ribose oxidase", "assay": "Covalent inhibition of recombinant Mycobacterium tuberculosis DprE1 extracted from Escherichia coli BL21(DE3) using FPR/GGPR as substrate incubated for 60 mins by resazurin dye based fluorescence plate reader analysis"}, "[11]": {"target": "T1, Decaprenylphosphoryl-beta-D-ribose oxidase", "assay": "Covalent inhibition of recombinant Mycobacterium tuberculosis DprE1 extracted from Escherichia coli BL21(DE3) assessed as inhibition constant using FPR/GGPR as substrate incubated for 60 mins by resazurin dye based fluorescence plate reader analysis"}, "[12]": {"assay": "Stability of compound in PBS at pH 7.4 assessed as compound remaining in presence of GSH incubated for 90 mins by UPLC-HRMS analysis", "assay_type": "physicochemical", "settings": "PBS with GSH, read-out: Stability"}},
  "data": [
    {"smiles": "C#CP(=O)(Nc1cc(C(F)(F)F)cc2c(=O)nc(N3CCC4(CC3)OC[C@H](C)O4)sc12)OCC", "note": "(stereo partly specified)", "values": [
      {"measurement": "MIC", "setting": "[1]", "value": 12, "unit": "µM"},
      {"measurement": "MIC", "setting": "[2]", "value": 96.6, "unit": "µM"},
      {"measurement": "MIC", "setting": "[3]", "value": 10.3, "unit": "µM"},
      {"measurement": "MIC", "setting": "[4]", "value": 10.3, "unit": "µM"},
      {"measurement": "CC50 at 72 h", "setting": "[5]", "value": 10.8, "unit": "µM"},
      {"measurement": "half-life", "setting": "[6]", "value": 10.5, "unit": "min"},
      {"measurement": "Drug metabolism", "setting": "[7]", "value": "metabolite_notdetected"}
    ]},
    {"smiles": "C=C=CC(=O)Nc1cc(C(F)(F)F)cc2c(=O)nc(N3CCC4(CC3)OC[C@H](C)O4)sc12", "values": [
      {"measurement": "MIC", "setting": "[1]", "value": 107, "unit": "µM"},
      {"measurement": "MIC", "setting": "[2]", "value": 107, "unit": "µM"}
    ]},
    {"smiles": "C=CS(=O)(=O)Nc1cc(C(F)(F)F)cc2c(=O)nc(N3CCC4(CC3)OC[C@H](C)O4)sc12", "values": [
      {"measurement": "MIC", "setting": "[1]", "value": 1.6, "unit": "µM"},
      {"measurement": "MIC", "setting": "[2]", "value": 25.4, "unit": "µM"},
      {"measurement": "MIC", "setting": "[3]", "value": 45.2, "unit": "µM"},
      {"measurement": "MIC", "setting": "[4]", "value": 44.9, "unit": "µM"},
      {"measurement": "IC50", "setting": "[8]", "value": 2.62, "unit": "µM"}
    ]},
    {"smiles": "COC(=O)C(=O)Nc1cc(C(F)(F)F)cc2c(=O)nc(N3CCC4(CC3)OC[C@H](C)O4)sc12", "values": [
      {"measurement": "MIC", "setting": "[1]", "value": 51.3, "unit": "µM"},
      {"measurement": "MIC", "setting": "[2]", "value": 103, "unit": "µM"},
      {"measurement": "CC50 at 72 h", "setting": "[5]", "value": "> 50", "unit": "µM"},
      {"measurement": "Stability", "setting": "[9]", "value": "Unstable"},
      {"measurement": "Drug metabolism", "setting": "[7]", "value": "metabolite_notdetected"}
    ]},
    {"smiles": "CCOC(=O)C(=O)Nc1cc(C(F)(F)F)cc2c(=O)nc(N3CCC4(CC3)OC[C@H](C)O4)sc12", "values": [
      {"measurement": "MIC", "setting": "[1]", "value": 49.8, "unit": "µM"},
      {"measurement": "MIC", "setting": "[2]", "value": 99.7, "unit": "µM"},
      {"measurement": "CC50 at 72 h", "setting": "[5]", "value": "> 50", "unit": "µM"},
      {"measurement": "Stability", "setting": "[9]", "value": "Unstable"},
      {"measurement": "Drug metabolism", "setting": "[7]", "value": "metabolite_notdetected"}
    ]},
    {"smiles": "C=CC(=O)Nc1cc(C(F)(F)F)cc2c(=O)nc(N3CCC4(CC3)OC[C@H](C)O4)sc12", "values": [
      {"measurement": "MIC", "setting": "[2]", "value": 110, "unit": "µM"},
      {"measurement": "MIC", "setting": "[3]", "value": 3.9, "unit": "µM"},
      {"measurement": "MIC", "setting": "[4]", "value": 3.6, "unit": "µM"},
      {"measurement": "IC50", "setting": "[10]", "value": 6.83, "unit": "µM"},
      {"measurement": "Ki", "setting": "[11]", "value": 38.8, "unit": "µM"}
    ]},
    {"smiles": "C=C(F)C(=O)Nc1cc(C(F)(F)F)cc2c(=O)nc(N3CCC4(CC3)OC[C@H](C)O4)sc12", "values": [
      {"measurement": "MIC", "setting": "[1]", "value": 13.2, "unit": "µM"},
      {"measurement": "MIC", "setting": "[2]", "value": 106, "unit": "µM"},
      {"measurement": "MIC", "setting": "[3]", "value": 13, "unit": "µM"},
      {"measurement": "MIC", "setting": "[4]", "value": 15.5, "unit": "µM"},
      {"measurement": "IC50", "setting": "[8]", "value": 1.13, "unit": "µM"}
    ]},
    {"smiles": "C[C@H]1COC2(CCN(c3nc(=O)c4cc(C(F)(F)F)cc(NC(=O)C(C)(C)Br)c4s3)CC2)O1", "values": [
      {"measurement": "MIC", "setting": "[1]", "value": 45.4, "unit": "µM"},
      {"measurement": "MIC", "setting": "[2]", "value": 90.8, "unit": "µM"},
      {"measurement": "CC50 at 72 h", "setting": "[5]", "value": "> 50", "unit": "µM"},
      {"measurement": "remaining at 1.5 h", "setting": "[12]", "value": 100, "unit": "%"},
      {"measurement": "Drug metabolism", "setting": "[7]", "value": "metabolite_notdetected"},
      {"measurement": "IC50", "setting": "[10]", "value": 81.4, "unit": "µM"},
      {"measurement": "Ki", "setting": "[11]", "value": 715, "unit": "µM"}
    ]},
    {"smiles": "C[C@H]1COC2(CCN(c3nc(=O)c4cc(C(F)(F)F)cc(N5CCC5=O)c4s3)CC2)O1", "values": [
      {"measurement": "MIC", "setting": "[1]", "value": 54.9, "unit": "µM"},
      {"measurement": "MIC", "setting": "[2]", "value": 110, "unit": "µM"},
      {"measurement": "CC50 at 72 h", "setting": "[5]", "value": "> 50", "unit": "µM"},
      {"measurement": "remaining at 1.5 h", "setting": "[12]", "value": 100, "unit": "%"}
    ]},
    {"smiles": "C=C(C)C(=O)Nc1cc(C(F)(F)F)cc2c(=O)nc(N3CCC4(CC3)OC[C@H](C)O4)sc12", "values": [
      {"measurement": "MIC", "setting": "[1]", "value": 26.6, "unit": "µM"},
      {"measurement": "MIC", "setting": "[2]", "value": 106, "unit": "µM"},
      {"measurement": "IC50", "setting": "[10]", "value": 33.9, "unit": "µM"},
      {"measurement": "Ki", "setting": "[11]", "value": 214, "unit": "µM"}
    ]},
    {"smiles": "CC(Cl)C(=O)Nc1cc(C(F)(F)F)cc2c(=O)nc(N3CCC4(CC3)OC[C@H](C)O4)sc12", "note": "(stereo partly specified)", "values": [
      {"measurement": "MIC", "setting": "[1]", "value": 102, "unit": "µM"},
      {"measurement": "MIC", "setting": "[2]", "value": 102, "unit": "µM"},
      {"measurement": "CC50 at 72 h", "setting": "[5]", "value": "> 50", "unit": "µM"},
      {"measurement": "remaining at 1.5 h", "setting": "[12]", "value": 100, "unit": "%"},
      {"measurement": "Drug metabolism", "setting": "[7]", "value": "metabolite_notdetected"}
    ]},
    {"smiles": "C=CP(=O)(Nc1cc(C(F)(F)F)cc2c(=O)nc(N3CCC4(CC3)OC[C@H](C)O4)sc12)OCC", "note": "(stereo partly specified)", "values": [
      {"measurement": "MIC", "setting": "[1]", "value": 6, "unit": "µM"},
      {"measurement": "MIC", "setting": "[2]", "value": 24.1, "unit": "µM"},
      {"measurement": "MIC", "setting": "[3]", "value": 4.5, "unit": "µM"},
      {"measurement": "MIC", "setting": "[4]", "value": 5, "unit": "µM"},
      {"measurement": "CC50 at 72 h", "setting": "[5]", "value": "> 50", "unit": "µM"},
      {"measurement": "remaining at 1.5 h", "setting": "[12]", "value": 100, "unit": "%"},
      {"measurement": "Drug metabolism", "setting": "[7]", "value": "metabolite_notdetected"},
      {"measurement": "IC50", "setting": "[8]", "value": 19.5, "unit": "µM"}
    ]},
    {"smiles": "C[C@H]1COC2(CCN(c3nc(=O)c4cc(C(F)(F)F)cc([N+](=O)[O-])c4s3)CC2)O1", "note": "[BTZ-043]", "values": [
      {"measurement": "MIC", "setting": "[1]", "value": 0.004, "unit": "µM"},
      {"measurement": "MIC", "setting": "[2]", "value": 0.058, "unit": "µM"},
      {"measurement": "MIC", "setting": "[3]", "value": 0.002, "unit": "µM"},
      {"measurement": "MIC", "setting": "[4]", "value": 0.002, "unit": "µM"}
    ]}
  ]
}
